Test results as given in patent publication US20050192221A1, “Methods and compositions related to plunc polypeptides” (priority 2003, published 2005).
In brackets after ≈: the same amount, converted by molar mass. Several values for one entry are separate records, joined by “and”; a condition that tells them apart may be missing. Equal values may be shown once. Entries after “also recorded” stand apart in the source; their conditions may differ. Read-outs that look alike come from different tables or passages of the source.

Key:
Staphylococcus aureus = conditions: cited from earlier work; for MIC50 / MIC90: unit assumed
Mycoplasma hominis = conditions: cited from earlier work
Mycoplasma pneumoniae = conditions: cited from earlier work
Streptococcus pneumoniae = conditions: in µg/mL (unit assumed); cited from earlier work
Listeria monocytogenes = conditions: unit assumed; cited from earlier work
Haemophilus ducreyi = conditions: unit assumed; cited from earlier work
Borrelia burgdorferi = conditions: unit assumed; cited from earlier work
Enterococcus spp. = conditions: unit assumed; cited from earlier work
Streptococcus spp. = conditions: unit assumed; cited from earlier work
Haemophilus influenzae = conditions: in µg/mL (unit assumed), cited from earlier work
Campylobacter pylori = conditions: cited from earlier work
Campylobacter jejuni = conditions: in µg/mL (unit assumed); cited from earlier work
Enterococcus faecium = conditions: unit assumed; cited from earlier work
Bacillus spp. = conditions: cited from earlier work
Streptococcus pyogenes = conditions: in µg/mL (unit assumed); cited from earlier work
Neisseria gonorrhoeae = conditions: in µg/mL (unit assumed), cited from earlier work
Bacteroides fragilis = conditions: cited from earlier work
[1] = tested on: Haemophilus parainfluenzae; conditions: cited from earlier work
Streptococcus agalactiae = conditions: cited from earlier work
[2] = tested on: Branhamella (Moraxella) catarrhalis; conditions: Branhamella (Moraxella) catarrhalis (β-lactamase producer); in µg/mL (unit assumed); cited from earlier work
Neisseria meningitidis = conditions: cited from earlier work
[3] = tested on: Bordetella bronchiseptica; conditions: cited from earlier work
[4] = tested on: endotoxin from E. coli 0111:B4; experiment: Limulus amebocyte lysate assay, endotoxin spiked with serial dilutions; format: biochemical; conditions: 30 ng E. coli endotoxin/well spiked with serial dilutions of ASL washings or supernatant from LPLUNC1 transfected 293 cells
Description: FIG. 3. ASL and LPLUNC1 inhibit endotoxin activity in the Limulus amebocyte lysate assay. Endotoxin activity contrasted in control media (closed circles, 30 ng E. coli endotoxin/well), or 30 ng endotoxin samples spiked with serial dilutions of ASL washings (closed squares) or cell culture supernatant from LPLUNC1 transfected 293 cells (closed diamonds). 10 EU=1 ng endotoxin.
As confirmation of the endotoxin binding activities of ASL secretions and expressed LPLUNC1, an additional assay was performed. The Limulus amebocyte lystate assay (QCL-1000; BioWhittaker, Walkersville, Md.) was used to determine if these samples inhibited endotoxin activity in this extremely sensitive laboratory test. Lyophilized standard endotoxin from E. coli 0111:B4 in sterile water (chromogenic substrate) was spiked with serial dilutions of ASL washings, or supernatants from LPLUNC1 transfected cells. Endotoxin concentrations were determined by measuring the change in absorbance at 405 nm, as described previously (Thorne et al., 1999).

[5] = tested on: TLR4 mediated signaling in human umbilical vein endothelial cells (HUVECS); experiment: LOS stimulated IL-8 release from HUVECS; format: cell-based; conditions: HUVECs treated overnight with LOS aggregates (3 ng/ml), soluble CD14 (250 ng/ml), LBP (100 ng/ml); ASL washings or supernatants of transfected 293 cells
Description: FIGS. 2A-2B. Effects of airway surface liquid (ASL), PLUNC, and LPLUNC1 on TLR4 mediated signaling in human umbilical vein endothelial cells (HUVECS). HUVECS in a 24 well dish were exposed to LOS from N. Meningitidis overnight in the presence of SCD14 and LBP. […] Control=media alone. […] Control cells were transfected with a plasmid expressing GFP. The transfection efficiency, based on GFP expression was >75%.
Alternatively, the inventors also consider the possibility that the properties of the proteins may be LBP-like and that their function may depend on the available concentrations. The ability of ASL to inhibit TLR4-mediated signaling in response to N. meningitis lipooligosaccharide (LOS) was tested in human umbilical vein endothelial cells (HUVECs) (Giardina et al., 2001). ASL secretions were recovered from the apical surface of primary cultures of human airway epithelia grown in serum free media by washing the surface with PBS. As show in FIG. 2A, HUVECs treated overnight with LOS aggregates (3 ng/ml) in the presence of soluble CD14 (250 ng/ml) and LBP (100 ng/ml) released significant quantities of IL-8 into the cell culture media. […] To determine whether PLUNC and/or LPLUNC1 have similar effects on TLR4 signaling, the inventors expressed their cDNAs in 293 cells grown in serum free media and harvested supernatants 48 hr following transfection.

[6] = tested on: human peripheral blood mononuclear cells stimulated by N. meniningititis lipo-oligosaccharide (LOS); experiment: LOS stimulation of human peripheral blood mononuclear cells; format: cell-based; conditions: baculovirus culture supernatants, N-terminal tagged proteins, 10 ng/ml N. meniningititis LOS
[7] = format: binding, N. meningitidis; conditions: recombinant LPLUNC1 C-terminal 6HIS incubated with 14C-LOS for 1 hr; versus Ad empty control supernatant
LOS = experiment: Limulus amebocyte lysate assay, detected LOS; format: biochemical; conditions: proteins from cell free in vitro translation (RTS) or HeLa supernatants, dilutions 1:1 to 1:8; 0.1 ng/ml LOS
[8] = Staphylococcus aureus (penicillin susceptible)
[9] = Haemophilus influenzae (non β-lactamase producer)
[10] = Haemophilus influenzae (penicillin resistant)
[11] = Haemophilus influenzae (penicillin susceptible)
[12] = Haemophilus influenzae (β-lactamase producer)
[13] = Neisseria gonorrhoeae (non β-lactamase producer)

## CCC[C@@H]1C[C@@H](C(=O)N[C@@H]([C@H]2O[C@H](SC)[C@H](O)[C@@H](O)[C@H]2O)[C@@H](C)O)N(C)C1 [LINCOMYCIN, lincomycin]
Staphylococcus aureus; Staphylococcus aureus, in µg/mL (unit assumed)
  Range (of MIC): 0.5-512
Staphylococcus aureus; Staphylococcus aureus
  MIC50: 1 µg/mL (≈ 2.46 µM)
  MIC90: 1 µg/mL (≈ 2.46 µM)
Mycoplasma hominis; in µg/mL (unit assumed)
  Range (of MIC): 0.5-16
Mycoplasma hominis; unit assumed
  MIC50: 2 µg/mL (≈ 4.92 µM)
  MIC90: 4 µg/mL (≈ 9.84 µM)
Mycoplasma pneumoniae; in µg/mL (unit assumed)
  Range (of MIC): 2-32
Mycoplasma pneumoniae; unit assumed
  MIC50: 8 µg/mL (≈ 19.7 µM)
  MIC90: 32 µg/mL (≈ 78.7 µM)

## CC[C@H]1OC(=O)[C@H](C)[C@@H](O[C@H]2C[C@@](C)(OC)[C@@H](O)[C@H](C)O2)[C@H](C)[C@@H](O[C@@H]2O[C@H](C)C[C@H](N(C)C)[C@H]2O)[C@](C)(O)C[C@@H](C)C(=O)[C@H](C)[C@@H](O)[C@]1(C)O [ERYTHROMYCIN, erythromycin]
Streptococcus pneumoniae
  MIC50: 0.06 and 0.03
  MIC90: 0.03 and 0.06
  Range (of MIC): 0.03-0.25 and 0.015-0.06 and 0.015-0.25
Listeria monocytogenes
  MIC50: 0.5 µg/mL (≈ 0.681 µM)
Staphylococcus aureus; Staphylococcus aureus (methicillin susceptible)
  MIC50: 0.5 µg/mL (≈ 0.681 µM)
Staphylococcus aureus; [8]
  MIC50: 0.5 µg/mL (≈ 0.681 µM)
  MIC90: 0.5 µg/mL (≈ 0.681 µM)
Staphylococcus aureus; Staphylococcus aureus
  MIC50: 0.5 µg/mL (≈ 0.681 µM)
Haemophilus ducreyi
  MIC50: 0.004 µg/mL (≈ 0.00545 µM)
  MIC90: 0.06 µg/mL (≈ 0.0818 µM)
Borrelia burgdorferi
  MIC50: 0.03 µg/mL (≈ 0.0409 µM)
  MIC90: 0.06 µg/mL (≈ 0.0818 µM)
Enterococcus spp.
  MIC50: 2 µg/mL (≈ 2.73 µM)
Streptococcus spp.
  MIC50: 0.03 µg/mL (≈ 0.0409 µM)
Haemophilus influenzae; [9]
  MIC50: 2 and 4
  MIC90: 4 and 8
Haemophilus influenzae; [10]
  MIC50: 8
  MIC90: 16
  Range (of MIC): 8-16
Haemophilus influenzae; [11]
  MIC50: 8
  MIC90: 16
  Range (of MIC): 0.25-16
Haemophilus influenzae; [12]
  MIC50: 4 and 2
  MIC90: 8 and 4
Haemophilus influenzae; Haemophilus influenzae
  MIC50: 2 and 1
  MIC90: 2 and 4
  Range (of MIC): 0.5-8
Campylobacter pylori; in µg/mL (unit assumed)
  Range (of MIC): 0.25-16
Campylobacter pylori; unit assumed
  MIC50: 0.5 µg/mL (≈ 0.681 µM)
Campylobacter jejuni
  MIC90: 4 and 2
  Range (of MIC): 0.5-8
Enterococcus faecium
  MIC50: 1 µg/mL (≈ 1.36 µM)
Bacillus spp.; in µg/mL (unit assumed)
  Range (of MIC): 0.03-2
Bacillus spp.; unit assumed
  MIC90: 2 µg/mL (≈ 2.73 µM)
Streptococcus pyogenes
  MIC50: 0.06 and 0.03
Neisseria gonorrhoeae; [13]
  MIC90: 1 and 2
  Range (of MIC): 0.03-2 and 0.015-4
Neisseria gonorrhoeae; Neisseria gonorrhoeae (β-lactamase producer)
  MIC90: 2 and 4
Neisseria gonorrhoeae; Neisseria gonorrhoeae
  MIC90: 1
  Range (of MIC): 0.0075-8
Bacteroides fragilis; in µg/mL (unit assumed)
  Range (of MIC): 0.25-16
Bacteroides fragilis; unit assumed
  MIC50: 1 µg/mL (≈ 1.36 µM)
  MIC90: 8 µg/mL (≈ 10.9 µM)
[1]; in µg/mL (unit assumed)
  Range (of MIC): 0.5-8
[1]; unit assumed
  MIC50: 2 µg/mL (≈ 2.73 µM)
  MIC90: 4 µg/mL (≈ 5.45 µM)
Streptococcus agalactiae; in µg/mL (unit assumed)
  Range (of MIC): 0.03-0.25 and 0.015-0.06
Streptococcus agalactiae; unit assumed
  MIC50: 0.03 µg/mL (≈ 0.0409 µM)
  MIC90: 0.03 µg/mL (≈ 0.0409 µM)
[2]
  Range (of MIC): 0.06-1 and 0.03-0.25 and 0.06-8
Neisseria meningitidis; in µg/mL (unit assumed)
  Range (of MIC): 0.5-8
Neisseria meningitidis; unit assumed
  MIC50: 1 µg/mL (≈ 1.36 µM)
  MIC90: 8 µg/mL (≈ 10.9 µM)
[3]; in µg/mL (unit assumed)
  Range (of MIC): 4-32
[3]; unit assumed
  MIC50: 8 µg/mL (≈ 10.9 µM)
  MIC90: 32 µg/mL (≈ 43.6 µM)

B1: LPLUNC1: human long PLUNC protein, 484 amino acids; tested as recombinant culture supernatant, in vitro translation product or 6HIS tagged protein (protein, UniProt Q8TDL5 22-484, looked up)
BPI fold-containing family B …: TLSPTAVLILGPKVIKEKLTQELKDHNATSILQQLPLLSAMREKPAGGIPVLGSLVNTVLKHIIWLKVITANILQLQVKPSANDQELLVKIPLDMVAGFNTPLVKTIVEFHMTTEAQATIRMDTSASGPTRLVLSDCATSHGSLRIQLLHKLSFLVNALAKQVMNLLVPSLPNLVKNQLCPVIEASFNGMYADLLQLVKVPISLSIDRLEFDLLYPAIKGDTIQLYLGAKLLDSQGKVTKWFNNSAASLTMPTLDNIPFSLIVSQDVVKAAVAAVLSPEEFMVLLDSVLPESAHRLKSSIGLINEKAADKLGSTQIVKILTQDTPEFFIDQGHAKVAQLIVLEVFPSSEALRPLFTLGIEASSEAQFYTKGDQLILNLNNISSDRIQLMNSGIGWFQPDVLKNIITEIIHSILLPNQNGKLRSGVPVSLVKALGFEAAESSLTKDALVLTPASLWKPSSPVSQ
[4]
  inhibition of endotoxin activity: inhibited endotoxin activity in a dose dependent fashion
[5]
  effect on LOS stimulated IL-8 release from HUVECS: dampened IL-8 secretion
[6]
  effect on responsiveness of PBMC to LOS stimulation: BPI-like inhibitory effects; also recorded: dampened the proinflammatory effect of LOS
[7]
  14C-LOS recovered with nickel resin: Significantly more LOS was recovered
LOS
  detectable level of LOS: dose-dependent decrease in detected LOS

B2: PLUNC: human palate, lung, and nasal epithelium clone protein, 256 amino acids; tested as recombinant culture supernatant or in vitro translation product (protein, UniProt Q9NP55 20-256, looked up)
BPI fold-containing family A …: QFGGLPVPLDQTLPLNVNPALPLSPTGLAGSLTNALSNGLLSGGLLGILENLPLLDILKPGGGTSGGLLGGLLGKVTSVIPGLNNIIDIKVTDPQLLELGLVQSPDGHRLYVTIPLGIKLQVNTPLVGASLLRLAVKLDITAEILAVRDKQERIHLVLGDCTHSPGSLQISLLDGLGPLPIQGLLDSLTGILNKVLPELVQGNVCPLVNEVLRGLDITLVHDIVNMLIHGLQFVIKV
[5]
  effect on LOS stimulated IL-8 release from HUVECS: dampened IL-8 secretion
[6]
  effect on responsiveness of PBMC to LOS stimulation: LBP-like pro-inflammatory activity
[6]; listed as SPLUNC1
  effect on responsiveness of PBMC to LOS stimulation: enhanced the LOS signaling
LOS
  detectable level of LOS: dose-dependent decrease in detected LOS
